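Step 1: Grow cells in 96-well plates. Step 2: Expose to compound for 48 hours at 5 concentrations. Step 3: Interpolate endpoints linearly; if unreached, use highest concentration. GI50: concentration for 50% inhibition of growth.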 Active and inactive are the calls of the source. No stated cut-off is given here; in the data, active = GI50 up to about 1.1 µM and inactive = higher.
Key:
Assay in all cases: DTP human tumour cell line panel, 48 h
[1] = tested on: A498
[2] = tested on: CCRF-CEM
[3] = tested on: COLO 205
[4] = tested on: EKVX
[5] = tested on: HCT-15
[6] = tested on: HL-60
[7] = tested on: NCI-H226
[8] = tested on: NCI-H23
[9] = tested on: NCI-H460
[10] = tested on: OVCAR-3
[11] = tested on: OVCAR-4
[12] = tested on: OVCAR-8
[13] = tested on: RPMI-8226
[14] = tested on: SF-539
[15] = tested on: SK-MEL-5
[16] = tested on: SN12C
[17] = tested on: SW-620
[18] = tested on: UACC-62
[19] = tested on: UO-31
[20] = tested on: SNB-19

SMILES | GI50 [1] | GI50 [2] | GI50 [3] | GI50 [4] | GI50 [5] [µM] | GI50 [6] | GI50 [7] | GI50 [8] | GI50 [9] | GI50 [10] | GI50 [11] | GI50 [12] | GI50 [13] | GI50 [14] | GI50 [15] | GI50 [16] | GI50 [17] | GI50 [18] | GI50 [19] | GI50 [20]
C[C@H]1[C@@H]2C[C@@H]3O[C@@]34[C@H]3CCC5Cc6nc7c(nc6C[C@@]5(C)[C@]3(O)CC(=O)[C@@]24CO[C@]12OC(C)(C)C[C@@H]2O)CC1CC[C@@H]2C3=C[C@H]4O[C@@]5(OC(C)(CO)C[C@@H]5O)[C@H](C)[C@@]4(O)[C@]3(C)[C@@H](O)CC2[C@]1(C)C7 (stereo partly drawn) | 0.0108 µM (active) | 0.0105 µM (active) | 0.0655 µM (active) | 0.0573 µM (active) | 0.121 | 0.00361 µM (active) | 0.0184 µM (active) | 0.0414 µM (active) | 0.00955 µM (active) | 0.7 µM (active) | 0.194 µM (active) | 3.02 µM (inactive) | 0.00139 µM (active) | 0.0179 µM (active) | 0.0873 µM (active) | > 3.52 µM (inactive) | 0.0333 µM (active) | 0.0175 µM (active) | 0.223 µM (active) | 
O=C(O)CCCCCCCCC(=O)O [SEBACIC ACID] | > 23.2 µM (inactive) | 300 µM (inactive) | > 79.3 µM (inactive) | 50 µM (inactive) | 99.1 | 316 µM (inactive) | > 500 µM (inactive) | 79.3 µM (inactive) | 108 µM (inactive) | 79.3 µM (inactive) | > 50 µM (inactive) | 108 µM (inactive) | > 500 µM (inactive) | > 79.3 µM (inactive) | > 23.2 µM (inactive) | > 321 µM (inactive) | > 500 µM (inactive) | > 79.3 µM (inactive) | > 79.3 µM (inactive) | 108 µM (inactive)
CCC1CN2CCC1CC2 (stereo not drawn) | > 100 µM (inactive) | > 100 µM (inactive) | > 100 µM (inactive) | > 100 µM (inactive) | > 100 | > 100 µM (inactive) | > 100 µM (inactive) | > 100 µM (inactive) | > 100 µM (inactive) | > 100 µM (inactive) | > 100 µM (inactive) | > 100 µM (inactive) | > 100 µM (inactive) | > 100 µM (inactive) | > 100 µM (inactive) | > 100 µM (inactive) | > 100 µM (inactive) | > 100 µM (inactive) | > 100 µM (inactive) | > 100 µM (inactive)
COc1cc(C(C)c2cc3c(cc2OCCO)OCO3)cc(OC)c1OC (stereo not drawn) |  | 1.82 µM (inactive) | 1.34 µM (inactive) | 3.79 µM (inactive) | 0.824 | 0.313 µM (active) | 2.86 µM (inactive) | 1.91 µM (inactive) | 2.2 µM (inactive) | 0.538 µM (active) | 45.3 µM (inactive) | 3.27 µM (inactive) | 4.59 µM (inactive) | 1.6 µM (inactive) | 0.667 µM (active) | 5.82 µM (inactive) | 0.746 µM (active) | 0.601 µM (active) | 5.82 µM (inactive) | 3.93 µM (inactive)
COc1c(Cl)cc(S(=O)O)cc1Cl | > 100 µM (inactive) | > 100 µM (inactive) |  | > 100 µM (inactive) |  | > 100 µM (inactive) |  | > 100 µM (inactive) | > 100 µM (inactive) | > 100 µM (inactive) | > 100 µM (inactive) |  |  | > 100 µM (inactive) |  | > 100 µM (inactive) |  | > 100 µM (inactive) | > 100 µM (inactive) | > 100 µM (inactive)
CC(C)CCC1CC2C(=O)N(c3ccccc3)C(=O)C2c2[nH]c3ccccc3c21 (stereo not drawn) | 1.84 µM (inactive) | 1.33 µM (inactive) | 1.38 µM (inactive) | 1.55 µM (inactive) | 2.71 | 1.11 µM (active) | 2.66 µM (inactive) | 2.79 µM (inactive) | 1.13 µM (inactive) | 0.885 µM (active) | 4.76 µM (inactive) | 0.9 µM (active) | 1.08 µM (active) | 0.711 µM (active) | 0.347 µM (active) | 2.67 µM (inactive) | 0.796 µM (active) | 6.21 µM (inactive) | 6.28 µM (inactive) | 1.24 µM (inactive)
COc1cc(C2c3[nH]c4ccccc4c3[C@@H](Nc3ccc(F)cc3)[C@H]3COC(=O)N23)cc(OC)c1O (stereo partly drawn) | 2.13 µM (inactive) | 0.296 µM (active) |  | 2.55 µM (inactive) | 1.66 |  | 0.815 µM (active) | 1.42 µM (inactive) | 0.957 µM (active) | 1.92 µM (inactive) | 2.55 µM (inactive) | 2.7 µM (inactive) |  | 1.26 µM (inactive) | 1.14 µM (inactive) | 1.35 µM (inactive) | 1.23 µM (inactive) | 1.37 µM (inactive) | 1.09 µM (active) | 1.26 µM (inactive)

— ChEMBL document CHEMBL1201862, “PubChem BioAssay data set” (2004)
